The source of these data is patent publication US8796289B2 (AbbVie Inc., priority 2011, dated 2014).

pKi: −log10 of the molar value.

In the first experiment the target is GST-tagged-Wee1 kinase (Homo sapiens, UniProt P30291). The experiment can be described thus: Wee1 time-resolved fluorescence equilibrium binding assay (displacement of Oregon Green-labeled ATP-competitive kinase probe).
GST-tagged-Wee1 kinase, sequence (P30291 whole entry): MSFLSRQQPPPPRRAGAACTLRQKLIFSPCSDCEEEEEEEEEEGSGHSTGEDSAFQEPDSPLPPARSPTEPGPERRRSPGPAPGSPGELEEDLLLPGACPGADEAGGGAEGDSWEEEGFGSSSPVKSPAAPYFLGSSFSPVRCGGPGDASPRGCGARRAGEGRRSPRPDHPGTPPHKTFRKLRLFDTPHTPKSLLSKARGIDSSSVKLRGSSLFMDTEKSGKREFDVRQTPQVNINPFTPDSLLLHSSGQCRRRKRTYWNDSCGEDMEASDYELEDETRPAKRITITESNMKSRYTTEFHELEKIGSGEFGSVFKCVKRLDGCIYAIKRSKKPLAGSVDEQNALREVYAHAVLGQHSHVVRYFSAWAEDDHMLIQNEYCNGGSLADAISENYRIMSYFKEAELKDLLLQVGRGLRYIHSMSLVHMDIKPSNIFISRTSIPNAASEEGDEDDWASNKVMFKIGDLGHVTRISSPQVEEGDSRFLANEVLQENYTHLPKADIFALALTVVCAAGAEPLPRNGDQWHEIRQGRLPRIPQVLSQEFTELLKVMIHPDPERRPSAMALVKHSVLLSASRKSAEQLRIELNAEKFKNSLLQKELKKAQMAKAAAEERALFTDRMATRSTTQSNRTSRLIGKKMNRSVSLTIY
Details: not given
How it is done: Wee1 kinase was assayed using a time-resolved fluorescence equilibrium binding assay monitoring displacement of a rapidly reversible Oregon Green-labeled ATP-competitive kinase probe (N-(2-(2-(2-(4-(4-(5-chloro-4-(2-(1-hydroxycyclobutyl)thiazol-5-yl)-1H-pyrrolo[2,3-b]pyridin-2-yl)phenyl)piperazin-1-yl)ethoxy)ethoxy)ethyl)-2′,7′-difluoro-3′,6′-dihydroxy-3-oxo-3H-spiro[isobenzofuran-1,9′-xanthene]-5-carboxamide) by competitive Wee1 inhibitors.
Molecule `Cn1cnc(-c2nn(-c3ccncc3Cl)c(=O)c3cnc(Nc4ccc5c(c4)CNCC54CC4)nc23)c1` [Example 373, 6-(3-chloropyridin-4-yl)-2-(2′,3′-dihydro-1′H-spiro[cyclopropane-1,4′-isoquinolin]-7′-ylamino)-8-(1-methyl-1H-imidazol-4-yl)pyrimido[4,5-d]pyridazin-5(6H)-one] had a pKi of 7.16. For `O=c1c2cnc(Nc3ccc(N4CCNCC4)cc3)nc2c(C(F)(F)F)nn1-c1c(Cl)cccc1Cl` [Example 418, 6-(2,6-dichlorophenyl)-2-{[4-(piperazin-1-yl)phenyl]amino}-8-(trifluoromethyl)pyrimido[4,5-d]pyridazin-5(6H)-one], the pKi was 9.46. `CN1CCN(c2ccc(Nc3ncc4c(=O)[nH]nc(-c5ccccc5)c4n3)cc2)CC1` [Example 4, 2-{[4-(4-methylpiperazin-1-yl)phenyl]amino}-8-phenylpyrimido[4,5-d]pyridazin-5(6H)-one] gave a pKi of 7.60. In turn, `C=CCn1nc(-c2ccccc2)c2nc(Nc3ccc(N4CCN(C(C)C)CC4)c(OC)c3)ncc2c1=O` [Example 114, 6-allyl-2-{[4-(4-isopropylpiperazin-1-yl)-3-methoxyphenyl]amino}-8-phenylpyrimido[4,5-d]pyridazin-5(6H)-one] gave a pKi of 8.52.

On to `O=c1c2cnc(Nc3ccc4c(c3)CNCC4)nc2c(-c2cnccn2)nn1-c1c(Cl)cccc1Cl` [Example 251, 6-(2,6-dichlorophenyl)-8-(pyrazin-2-yl)-2-(1,2,3,4-tetrahydroisoquinolin-7-ylamino)pyrimido[4,5-d]pyridazin-5(6H)-one], for which the pKi is 9.70. As to `CN1CCN(c2ccc(Nc3ncc4c(=O)n(-c5ccccc5Cl)nc(-c5cccc(N6CCCC6)n5)c4n3)cc2)CC1` [Example 181, 6-(2-chlorophenyl)-2-{[4-(4-methylpiperazin-1-yl)phenyl]amino}-8-[6-(pyrrolidin-1-yl)pyridin-2-yl]pyrimido[4,5-d]pyridazin-5(6H)-one], the pKi was 8.22. Molecule `Cc1nn(-c2c(F)cccc2Cl)c(=O)c2cnc(Nc3ccc4c(c3)CN(C)CC43CC3)nc12` [Example 313, 6-(2-chloro-6-fluorophenyl)-8-methyl-2-[(2′-methyl-2′,3′-dihydro-1′H-spiro[cyclopropane-1,4′-isoquinolin]-7′-yl)amino]pyrimido[4,5-d]pyridazin-5(6H)-one] gave a pKi of 8.59.

`Cc1nn(-c2c(Cl)cccc2Cl)c(=O)c2cnc(Nc3ccc4c(c3)C(C)(C)NCC4)nc12` [Example 444, 6-(2,6-dichlorophenyl)-2-[(1,1-dimethyl-1,2,3,4-tetrahydroisoquinolin-7-yl)amino]-8-methylpyrimido[4,5-d]pyridazin-5(6H)-one]: the pKi was 9.80.

The molecule `Cc1nn(-c2c(Cl)cccc2Cl)c(=O)c2cnc(Nc3ccc(C4CCCN4)cc3)nc12` (stereo not drawn) [Example 455, 6-(2,6-dichlorophenyl)-8-methyl-2-{[4-(pyrrolidin-2-yl)phenyl]amino}pyrimido[4,5-d]pyridazin-5(6H)-one] showed a negative logarithm of the Ki (pKi) of 9.30. `CN1CCN(c2ccc(Nc3ncc4c(=O)n(-c5c(Cl)cccc5Cl)nc(-c5cn(C)cn5)c4n3)cc2)CC1` [Example 338, 6-(2,6-dichlorophenyl)-8-(1-methyl-1H-imidazol-4-yl)-2-{[4-(4-methylpiperazin-1-yl)phenyl]amino}pyrimido[4,5-d]pyridazin-5(6H)-one]: the pKi was 9.14.

In turn, `CN1CCN(c2ccc(Nc3ncc4c(=O)n(CCC#N)nc(CCc5ccccc5)c4n3)cc2)CC1` [Example 8, 3-[2-{[4-(4-methylpiperazin-1-yl)phenyl]amino}-5-oxo-8-(2-phenylethyl)pyrimido[4,5-d]pyridazin-6(5H)-yl]propanenitrile] had a pKi of 6.43.

The experiment is the same for the next values; noted with them: read-out: Wee-1 inhibition Ki.
In the case of `Cc1nn(-c2c(Cl)cccc2Cl)c(=O)c2cnc(Nc3ccc4c(c3)CNCC4)nc12` [Example 395], the pKi is 9.00.

As usually defined, the pKi is the Ki on a negative log10 scale, so that one unit is a factor of ten.
